# Test results as given in PMC10185560, “Turn air-captured CO2 with methanol into amino acid and pyruvate in an ATP/NAD(P)H-free chemoenzymatic system” (Nature Communications, 2023).
# Legend:
# MsLSD = target: T1, MsLSD (Mycolicibacterium smegmatis, UniProt A0QY48); assay: residual serine dehydratase activity; format: biochemical; settings: 75% loss printed at 20 mM, reactive inactivator
# T1 construct: gene MSMEG_3532; described as PLP-dependent
# T1 sequence (A0QY48 1-316): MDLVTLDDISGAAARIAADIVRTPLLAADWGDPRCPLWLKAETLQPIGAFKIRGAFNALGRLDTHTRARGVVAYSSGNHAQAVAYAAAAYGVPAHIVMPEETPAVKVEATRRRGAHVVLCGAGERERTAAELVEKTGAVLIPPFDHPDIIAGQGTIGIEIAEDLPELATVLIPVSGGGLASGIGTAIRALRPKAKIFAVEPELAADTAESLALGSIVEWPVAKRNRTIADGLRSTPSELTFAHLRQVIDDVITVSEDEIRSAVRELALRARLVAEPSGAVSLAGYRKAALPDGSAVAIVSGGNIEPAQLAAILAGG
# L protein = target: T2, L protein (Escherichia coli, UniProt P0A9P0); assay: NADH formation at […] nm; format: biochemical
# T2 construct: gene lpdA
# T2 sequence (P0A9P0 2-474): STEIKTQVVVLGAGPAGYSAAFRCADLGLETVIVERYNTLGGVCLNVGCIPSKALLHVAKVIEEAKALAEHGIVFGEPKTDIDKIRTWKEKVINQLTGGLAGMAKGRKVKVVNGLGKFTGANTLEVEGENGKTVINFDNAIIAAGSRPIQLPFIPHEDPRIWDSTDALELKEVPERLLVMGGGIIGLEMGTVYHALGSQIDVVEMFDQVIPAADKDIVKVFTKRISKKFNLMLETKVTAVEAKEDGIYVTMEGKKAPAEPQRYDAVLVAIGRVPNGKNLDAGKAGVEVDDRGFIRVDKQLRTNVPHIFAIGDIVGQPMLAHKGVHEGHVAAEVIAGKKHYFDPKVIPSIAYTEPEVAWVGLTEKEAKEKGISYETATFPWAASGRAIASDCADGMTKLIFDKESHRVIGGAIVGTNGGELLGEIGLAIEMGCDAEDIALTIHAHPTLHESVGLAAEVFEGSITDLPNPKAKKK
# LpLSD = target: T3, LpLSD (Legionella pneumophila, UniProt Q5ZXE1); settings: freshly made enzyme
# T3 construct: gene sda-2
# T3 sequence (Q5ZXE1 1-458): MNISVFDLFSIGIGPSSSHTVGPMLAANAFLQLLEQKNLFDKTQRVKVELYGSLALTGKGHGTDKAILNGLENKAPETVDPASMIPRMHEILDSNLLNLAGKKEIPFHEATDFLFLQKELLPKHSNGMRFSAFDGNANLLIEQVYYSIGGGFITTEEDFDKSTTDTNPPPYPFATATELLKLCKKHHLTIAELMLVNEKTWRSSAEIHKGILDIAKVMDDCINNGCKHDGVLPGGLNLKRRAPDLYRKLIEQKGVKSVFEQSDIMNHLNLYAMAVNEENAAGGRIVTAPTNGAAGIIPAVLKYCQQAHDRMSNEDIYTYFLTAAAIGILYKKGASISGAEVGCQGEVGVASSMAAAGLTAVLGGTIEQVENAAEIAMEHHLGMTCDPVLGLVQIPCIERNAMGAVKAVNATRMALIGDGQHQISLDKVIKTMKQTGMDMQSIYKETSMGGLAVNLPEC
smiles,measurement,setting,value
C=O [formaldehyde],activity loss at 10 mM formaldehyde,MsLSD,~ 50%
NC(=O)c1ccc[n+]([C@@H]2O[C@H](COP(=O)(O)OP(=O)(O)OC[C@H]3O[C@@H](n4cnc5c(N)ncnc54)[C@H](O)[C@@H]3O)[C@@H](O)[C@H]2O)c1 [NAD^+],NADH formation at 340 nm,L protein,Hred was then re-oxidized by L-protein in the presence of NAD^+
N[C@@H](CO)C(=O)O [serine],pyruvate formation by HPLC,LpLSD,The fresh-made LpLSD enzyme showed similar activities
